Measurements published in patent publication US8999980B2, “Oxazine derivatives” (Shionogi & Co., Ltd., priority 2009, dated 2015).

These molecules were tested against Recombinant human BACE1 (Homo sapiens (Human), UniProt P56817) (assay: Assay of BACE1 inhibiting activity). Details: read-out: IC50 (50% inhibitory concentration against the enzymatic activity); Recombinant human BACE1 7.4 nmol/L, substrate peptide 18 nmol/L, pH 5.0, 30° C., 3 hours.
Format: biochemical
Description: 48.5 μL of substrate peptide solution (Biotin-XSEVNLDAEFRHDSGC-Eu: X=ε-amino-n-capronic acid, Eu=Europium cryptate) was added to each well of 96-hole half-area plate (a black plate: Costar), and after addition of 0.5 μl of the test compound (dissolved in N,N′-dimethyl formaldehyde) and 1 μl of Recombinant human BACE1(R&D Systems), the reaction mixture was incubated at 30° C. for 3 hours. The substrate peptide was synthesized by reacting Cryptate TBPCOOH mono SMP (CIS bio international) with Biotin-XSEVNLDAEFRHDSGC (Peptide Institute, Inc.).
After the incubation for reaction, 50 μl of 8.0 μg/ml Streptavidin-XL665 (CIS bio international) dissolved in phosphate buffer (150 mmol/L K2HPO4—KH2PO4, pH 7.0, 0.008% Triton X-100, 0.8 mol/L KF) was added to each well and left stand at 30° C. for an hour.

Sequence of Recombinant human BACE1 (P56817 46-501): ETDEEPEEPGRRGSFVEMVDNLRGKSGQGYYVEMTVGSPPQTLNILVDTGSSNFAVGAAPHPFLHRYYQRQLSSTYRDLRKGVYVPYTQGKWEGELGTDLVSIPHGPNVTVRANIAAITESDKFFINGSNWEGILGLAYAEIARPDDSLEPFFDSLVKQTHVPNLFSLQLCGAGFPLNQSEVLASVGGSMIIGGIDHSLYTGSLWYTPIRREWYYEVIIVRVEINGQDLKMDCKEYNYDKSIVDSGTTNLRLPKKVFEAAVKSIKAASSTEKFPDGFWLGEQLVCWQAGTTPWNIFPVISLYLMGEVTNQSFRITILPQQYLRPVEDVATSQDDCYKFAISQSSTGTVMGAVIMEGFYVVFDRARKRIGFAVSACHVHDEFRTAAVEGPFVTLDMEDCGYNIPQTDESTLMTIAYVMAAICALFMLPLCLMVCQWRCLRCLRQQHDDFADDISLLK

Q: For `C=C1C[C@@](C)(c2cc(NC(=O)c3ccc(Cl)cn3)ccc2F)N=C(N)O1` [Compound I-2], which IC50 is on record?
A: 0.027 µM

Q: For `C=C1C[C@@](C)(c2cc(NC(=O)c3cnc(OC)cn3)ccc2F)N=C(N)O1` [Compound I-3], which IC50 is on record?
A: ≤ 30 µM

Q: For `C=C1C[C@@](C)(c2cc(NC(=O)c3ncc(Cl)cc3Cl)ccc2F)N=C(N)O1` [Compound I-4], which IC50 is on record?
A: ≤ 30 µM

Q: For `C=C1C[C@@](C)(c2cc(NC(=O)c3ncc(F)cc3F)ccc2F)N=C(N)O1` [Compound I-5], which IC50 is on record?
A: ≤ 30 µM
